Source: ChEMBL document CHEMBL1201862, “PubChem BioAssay data set” (2004)
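Five compound concentrations were applied to cells in 96-well plates for 48 hours; endpoints were derived by simple linear interpolation of the resulting dose-response curve. GI50 = concentration required for 50% inhibition of growth.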 Calls of active or inactive are those of the source. Cut-off read from the data, not from the text of the source: active = GI50 up to about 1.1 µM and inactive = higher.

What was measured:
Test in all cases: NCI tumour cell line growth inhibition, 48 h
SF-295 = test system: SF-295
COLO 205 = test system: COLO 205
UACC-62 = test system: UACC-62
MOLT-4 = test system: MOLT-4
OVCAR-3 = test system: OVCAR-3
SF-268 = test system: SF-268
CCRF-CEM = test system: CCRF-CEM
OVCAR-8 = test system: OVCAR-8
NCI-H460 = test system: NCI-H460
A549 = test system: A549
SK-MEL-28 = test system: SK-MEL-28
UACC-257 = test system: UACC-257
SN12C = test system: SN12C
RPMI-8226 = test system: RPMI-8226
LOX IMVI = test system: LOX IMVI
NCI/ADR-RES = test system: NCI/ADR-RES
HL-60 = test system: HL-60
MDA-MB-435 = test system: MDA-MB-435
SK-MEL-2 = test system: SK-MEL-2
MDA-N = test system: MDA-N
HCC 2998 = test system: HCC 2998
HCT-116 = test system: HCT-116
OVCAR-5 = test system: OVCAR-5
MDA-MB-231 = test system: MDA-MB-231
CAKI-1 = test system: CAKI-1
NCI-H23 = test system: NCI-H23
SK-OV-3 = test system: SK-OV-3
U-251 = test system: U-251
BT-549 = test system: BT-549
SK-MEL-5 = test system: SK-MEL-5
DU-145 = test system: DU-145
PC-3 = test system: PC-3
HOP-92 = test system: HOP-92
IGROV-1 = test system: IGROV-1
KM12 = test system: KM12
K562 = test system: K562
RXF 393 = test system: RXF 393
SR = test system: SR
EKVX = test system: EKVX
A498 = test system: A498
UO-31 = test system: UO-31
786-0 = test system: 786-0
HT-29 = test system: HT-29
SNB-19 = test system: SNB-19
NCI-H522 = test system: NCI-H522
OVCAR-4 = test system: OVCAR-4
M14 = test system: M14
Malme-3M = test system: Malme-3M
SF-539 = test system: SF-539
HCT-15 = test system: HCT-15
NCI-H226 = test system: NCI-H226
TK-10 = test system: TK-10
ACHN = test system: ACHN
Hs-578T = test system: Hs-578T
MCF7 = test system: MCF7
T47D = test system: T47D
SNB-75 = test system: SNB-75
SW-620 = test system: SW-620
HOP-62 = test system: HOP-62

Oc1ccc2ccccc2c1/C=C/c1ccc2c(Br)cc(Br)c(O)c2n1
GI50 (SF-295): 4.32 µM (inactive) | GI50 (COLO 205): 4.86 µM (inactive) | GI50 (UACC-62): 6.01 µM (inactive) | GI50 (MOLT-4): 1.59 µM (inactive) | GI50 (OVCAR-3): 2.49 µM (inactive) | GI50 (SF-268): 5.87 µM (inactive) | GI50 (CCRF-CEM): 2.38 µM (inactive) | GI50 (OVCAR-8): 3.57 µM (inactive) | GI50 (NCI-H460): 1.75 µM (inactive) | GI50 (A549): 4.74 µM (inactive) | GI50 (SK-MEL-28): 12.8 µM (inactive) | GI50 (UACC-257): 8.49 µM (inactive) | GI50 (SN12C): 5.04 µM (inactive) | GI50 (RPMI-8226): 4.06 µM (inactive) | GI50 (LOX IMVI): 2.6 µM (inactive) | GI50 (NCI/ADR-RES): 2.41 µM (inactive) | GI50 (HL-60): 2.87 µM (inactive) | GI50 (MDA-MB-435): 11.8 µM (inactive) | GI50 (SK-MEL-2): 8.34 µM (inactive) | GI50 (MDA-N): 9.71 µM (inactive) | GI50 (HCC 2998): 6.97 µM (inactive) | GI50 (HCT-116): 2.96 µM (inactive) | GI50 (OVCAR-5): 7.76 µM (inactive) | GI50 (MDA-MB-231): 5.58 µM (inactive) | GI50 (CAKI-1): 11 µM (inactive) | GI50 (NCI-H23): 5.96 µM (inactive) | GI50 (SK-OV-3): 9.4 µM (inactive) | GI50 (U-251): 4.54 µM (inactive) | GI50 (BT-549): 12.3 µM (inactive) | GI50 (SK-MEL-5): 3.36 µM (inactive) | GI50 (DU-145): 12 µM (inactive) | GI50 (PC-3): 4.57 µM (inactive) | GI50 (HOP-92): 11.5 µM (inactive) | GI50 (IGROV-1): 2.17 µM (inactive) | GI50 (KM12): 5.4 µM (inactive) | GI50 (K562): 3.11 µM (inactive) | GI50 (RXF 393): 8.61 µM (inactive) | GI50 (SR): 3.12 µM (inactive) | GI50 (EKVX): 3.11 µM (inactive) | GI50 (A498): 5.64 µM (inactive) | GI50 (UO-31): 4.05 µM (inactive) | GI50 (786-0): 5.2 µM (inactive) | GI50 (HT-29): 9.73 µM (inactive) | GI50 (SNB-19): 6.73 µM (inactive) | GI50 (NCI-H522): 3.56 µM (inactive) | GI50 (OVCAR-4): 9.82 µM (inactive) | GI50 (M14): 7.38 µM (inactive) | GI50 (Malme-3M): 12.7 µM (inactive) | GI50 (SF-539): 2.53 µM (inactive) | GI50 (HCT-15): 0.787 µM | GI50 (NCI-H226): 5.02 µM (inactive) | GI50 (TK-10): 11 µM (inactive) | GI50 (ACHN): 5.6 µM (inactive) | GI50 (Hs-578T): 12.6 µM (inactive) | GI50 (MCF7): 1.24 µM (inactive) | GI50 (T47D): 11.6 µM (inactive) | GI50 (SNB-75): 15.2 µM (inactive) | GI50 (SW-620): 4.9 µM (inactive) | GI50 (HOP-62): 8.17 µM (inactive)
